From ChEMBL document CHEMBL2429795, “New route for synthesis, spectroscopy, and X-ray studies of 2-[aryl-(6-hydroxy-4,4-dimethyl-2-oxocyclohex-6-enyl)methyl]-3-hydroxy-5,5-dimethylcyclohex-2-enone and 1,8-dioxo-octahydroxanthenes and antitumor evaluation” (Med Chem Res, 2013)

Key:
[1] = Cytotoxicity against human NCM460 cells assessed as decrease in cell viability up to 25 uM after 4 to 20 hrs by trypan blue exclusion assay; format: cell-based
[2] = system: WI-38; test: Cytotoxicity against human WI38 cells assessed as decrease in cell viability up to 25 uM after 4 to 20 hrs by trypan blue exclusion assay; format: cell-based
[3] = system: PrEC; test: Cytotoxicity against human PrEC assessed as decrease in cell viability up to 25 uM after 24 hrs by trypan blue exclusion assay; format: cell-based
[4] = Cytotoxicity against human NCM460 cells assessed as growth inhibition after 48 hrs by trypan blue exclusion assay; format: cell-based; settings: for IC50: Homo sapiens, NCM460, 48 h; for growth inhibition (GI): human, ncm460, 48 h
[5] = system: PrEC; test: Cytotoxicity against human PrEC assessed as growth inhibition after 48 hrs by trypan blue exclusion assay; format: cell-based; settings: for IC50: Homo sapiens, PrEC; for growth inhibition (GI): human, prec
[6] = system: WI-38; test: Cytotoxicity against human WI38 cells assessed as growth inhibition after 48 hrs by trypan blue exclusion assay; format: cell-based; settings: for IC50: Homo sapiens, WI-38, 48 h; for growth inhibition (GI): human, wi-38, 48 h
[7] = system: SF-268; test: Cytotoxicity against human SF268 cells assessed as growth inhibition after 48 hrs by sulforhodamine B assay; format: functional, cell-based; settings: for IC50: SF-268, 48 h
[8] = system: NCI-H460; test: Cytotoxicity against human NCI-H460 cells assessed as growth inhibition after 48 hrs by sulforhodamine B assay; format: functional, cell-based; settings: for IC50: NCI-H460, 48 h
[9] = system: MCF7; test: Cytotoxicity against human MCF7 cells assessed as growth inhibition after 48 hrs by sulforhodamine B assay; format: functional, cell-based; settings: for IC50: MCF7, 48 h

| Compound | Activity [1] | Activity [2] | Activity [3] | IC50 [4] [µM] | growth inhibition (GI) [4] | IC50 [5] [µM] | growth inhibition (GI) [5] | IC50 [6] [µM] | growth inhibition (GI) [6] | growth inhibition (GI) [7] | IC50 [7] [µM] | growth inhibition (GI) [8] | IC50 [8] [µM] | growth inhibition (GI) [9] | IC50 [9] [µM] |
| --- | --- | --- | --- | --- | --- | --- | --- | --- | --- | --- | --- | --- | --- | --- | --- |
| CC1(C)CC(=O)C2=C(C1)OC1=C(C(=O)CC(C)(C)C1)C2c1ccccc1 | Non-toxic | Non-toxic | Non-toxic | 0.09 | Dose-dependent effect | 0.45 | Dose-dependent effect | 0.47 | Dose-dependent effect | Dose-dependent effect | 36.3 | Dose-dependent effect | 20.1 | Dose-dependent effect | 30.4 |
| CC1(C)CC(=O)C(C(C2=C(O)CC(C)(C)CC2=O)c2ccccc2)=C(O)C1 | Non-toxic | Non-toxic | Non-toxic | 2.43 | Dose-dependent effect | 1.29 | Dose-dependent effect | 2.18 | Dose-dependent effect | Dose-dependent effect | 0.02 | Dose-dependent effect | 0.01 | Dose-dependent effect | 0.02 |
| CC1(C)CC(=O)C(C(C2=C(O)CC(C)(C)CC2=O)c2ccco2)=C(O)C1 | Non-toxic | Non-toxic | Non-toxic | 0.06 | Dose-dependent effect | 0.33 | Dose-dependent effect | 0.08 | Dose-dependent effect | Dose-dependent effect | 0.03 | Dose-dependent effect | 0.03 | Dose-dependent effect | 0.03 |
| COc1cccc2c1C(=O)c1c(O)c3c(c(O)c1C2=O)C[C@@](O)(C(=O)CO)C[C@@H]3O[C@H]1C[C@H](N)[C@H](O)[C@H](C)O1 [DOXORUBICIN] |  |  |  |  |  |  |  |  |  |  | 0.09 |  | 0.09 |  | 0.04 |
